Counter-ions that a name gives are not always drawn.
Experiments:
[1] = open randomised two way crossover pharmacokinetic study in healthy male volunteers, single oral dose; assay type: in vivo, human (healthy male volunteers); conditions: for half-life: t1/2
Method: (§1) An open randomised two way crossover study was conducted on a group of 13 healthy male volunteers to investigate the pharmacokinetics of the meglumine salt of (S)-etodolac and racemic etodolac (Lodine®); 11 volunteers received both treatments. Doses used were […] of the meglumine salt (equivalent to 100 mg of the free acid) and 200 mg of racemic etodolac. Blood samples were taken regularly.
The results of the pharmacokinetic study are shown in Table 1 and in FIGS. 1 and 2 below.
FIG. 1 is a graph of plasma concentration (μg/ml) of the (S)enantiomer for all volunteers receiving a single oral dose of 200 mg of racemic etodolac.
FIG. 2 is a graph of plasma concentration (μ/ml) of the (S) enantiomer for all volunteers receiving a single oral dose of 168 mg of the meglumine salt of (S)-etodolac (100 mg free acid equivalent).

[2] = design: species or system human (healthy male volunteers); conditions: human, in vivo
Method: as §1
Etodolac had no affect on vital signs, ECGs, physical examinations or on any clinical laboratory assessments, including serum biochemistry, haematology and urinalysis, when administered in either form.

[3] = free acid, Lee et al, J. Pharm. Sci. (1988); cited from earlier work

Row | t1/2 comparison in words ([1]; human, in vivo) | half-life ([1]; human, in vivo, po) [h] | tmax ([1]; human, in vivo, po, tmax) [h] | plasma concentrations of (R)-etodolac relative to (S)-etodolac ([1]; human, in vivo, po) | tmax ([1]; human, in vivo, po) [h] | peak plasma concentrations in words ([1]; human, in vivo) | appearance in plasma in words ([1]; meglumine salt dosed orally) | SMILES | effect on vital signs, ECGs, physical examinations or clinical laboratory assessments (serum biochemistry, haematology, urinalysis) [2] | stability on heating under acidic conditions [3]
1 | substantially eguivalent | 7.14 | 1.67 | – | – | – | – | CCc1cccc2c3c([nH]c12)C(CC)(CC(=O)O)OCC3 (racemic) [racemic etodolac] | no affect | leads to its decomposition
2 | substantially eguivalent | ~7 | 1.73 | about 10 times higher | – | – | – | CCc1cccc2c3c([nH]c12)[C@@](CC)(CC(=O)O)OCC3 [(R)-etodolac] | – | –
3 | markedly lower | ~2 | – | – | 1.23 | – | – | CCc1cccc2c3c([nH]c12)[C@](CC)(CC(=O)O)OCC3 [(S)-etodolac] | – | –
4 | – | – | – | – | 0.333 | significantly higher | appears in the plasma very rapidly | CCc1cccc2c3c([nH]c12)[C@](CC)(CC(=O)O)OCC3 [Meglumine salt of (S)-etodolac] | – | –

Reference: patent US5811558A, “Process for the resolution of etodolac using glucamine derivatives” (priority 1994, dated 1998)
